Results published in patent US11999782B2, “Therapeutic agents for the treatment of diseases associated with undesired cell proliferation” (Fundació Privada Institutció Catalana de Recerca I Estudis …, priority 2009, dated 2024).

System: LIF expression in PCTC cells
Assay: LIF mRNA by qRT-PCR in PCTCs of human GBM
Assay type: cell-based
Settings: PCTCs from 11 human GBMs, 100 pM TGFβ1, 3 hours, medium without serum
Procedure: FIG. 3. TGFβ induces the expression of LIF in PCTC and GBM neurospheres. (A) PCTC cells of the 11 samples of the indicated GEM (GBM1-11) were treated with 100 pM TGFβ1 for 3 hours in medium without serum or left untreated, and the expression levels of LIF were determined by means of qRT-PCR. The g-actin was determined as an internal normalization control. (B) GBM neurosphere cells were treated as in A and the expression levels of LIF were determined by means of qRT-PCR as in A. (C) GBM neurospheres were incubated with 100 pM TGFβ1 and/or 2 μM TβRI inhibitor for 3 hours in medium without serum and the mRNA levels of LIF were determined by means of qRT-PCR as in A. (D) GBM1 neurospheres were incubated with 100 pM TGFβ1, TGFβ2 and TGFβ3 for 3 hours in medium without serum and the mRNA levels of LIF were determined by means of qRT-PCR as in A. (E) The levels of LIF protein secreted were determined by means of ELISA in GBM1 neurospheres after 48 hours of treatment with 100 pM TGFβ1. […]
qRT-PCR was performed using Taqman probes from Applied Biosystems, according to the manufacturer's recommendations. The reactions were carried out in a ABI 7000 sequence detector (Perkin Elmer) and the results were expressed as the fold change calculated by means of the DDCt method relative to the control sample or the first quantified sample. […]

Q: “TGFβ: TGFβ1 (R&D Systems), used at 100 pM according to the figure legends” was tested. Which “levels of LIF mRNA in PCTCs” value did it give?
A: induced LIF in all the PCTCs assayed
